Source: US20260184669A1, “LIPID COMPOUND AND COMPOSITION FOR DELIVERY OF ACTIVE SUBSTANCE” (KOREA RESEARCH INSTIUTE OF BIOSCIENCE AND BIOTECHNOLOGY, priority 2022, published 2026)

Assays:
[1] = system: female C57BL/6 mice; assay: Protein expression efficiency of fLuc mRNA-LNPs after intramuscular injection (IVIS whole-body luminescence); type: in vivo; conditions: for Total flux 1 hour / Total flux 3 hours / Total flux 6 hours / Total flux 48 hours / Total flux 72 hours / Total flux: fLuc mRNA-LNP, intramuscular injection, luminescence at injection site, mice; for Total flux 1 hour: 1 hour after administration; for Total flux 3 hours: 3 hours after administration; for Total flux 6 hours: 6 hours after administration; for Total flux 48 hours: 48 hours after administration; for Total flux 72 hours: 72 hours after administration; for Total flux: after administration; for Fold increase in total flux at 3 h, MC3: relative to control LNP formulated with MC3; for Fold increase in total flux at 3 h, MC3 / Fold increase in total flux at 3 h, SM-102: 3 hours after intramuscular injection; for Fold increase in total flux at 3 h, SM-102: relative to control LNP formulated with SM-102
Protocol: fLuc mRNA-LNPs formulated using various ionizable lipids were prepared according to the method described in Example 27 and administered in vivo via intramuscular (I. M.) or intravenous (IV.) injection to compare the resulting protein expression efficiency in vivo. As a control, EGFP mRNA-LNPs formulated with commercially available ionizable lipids MC3 or SM-102 were used. All mRNA-LNPs were administered at equal mRNA doses per body weight across different concentration groups (n≥4).
Specifically, the dose of mRNA-LNPs was adjusted to 0.1-0.5 mg/kg of body weight, and the formulation was administered via I.M. or I.V. injection to female C57BL/6 mice (6-10 weeks old, Orient Bio, Korea) Subsequently, […], whole-body luminescence images were acquired using an in vivo imaging system (IVIS Lumina III, PerkinElmer, Walzam, MA, USA). To assess protein expression levels, 200 μL of D-luciferin (15 mg/mL) was administered via intraperitoneal (I.P.) injection 10 minutes prior to imaging. During image acquisition, the animals were anesthetized by inhalation of 3% isoflurane in 97% medical grade oxygen. In addition, the acquired luminescence images were quantitatively analyzed using imaging software (Living Image Software Version 4.4; PerkinElmer, USA).
After intramuscular injection of the fLuc mRNA-LNPs, the luminescence intensity at the injection site was measured over time.
Furthermore, the luminescence intensity at the injection site 3 hours after intramuscular injection was measured, and the relative protein expression efficiency was compared to that of control LNPs formulated with MC3 or SM-102.

[2] = Stability of mRNA-LNPs according to storage temperature and duration; type: physicochemical; conditions: for Normalized EE % D-1 / Size (nm) D-1 / PDI D-1: day 1; for Normalized EE % D-7 / PDI D-7 / Size (nm) D-7: day 7; for Normalized EE % D-30 / PDI D-30 / Size (nm) D-30: day 30
Protocol: Stability of fLuc mRNA-LNPs produced using various ionizable lipids according to the method of Example 27, was assessed by storing the LNPs at 4° C. and 25° C. At 1, 7, and 30 days post-manufacture, the size, PDI, and encapsulation efficiency (EE) of each mRNA-LNPs samples were measured using the methods described in Experimental Examples 2 and 3.

[3] = Size, polydispersity index and surface charge of mRNA-LNP (Malvern Zetasizer Nano ZS90); type: physicochemical; conditions: for PDI / size (nm) Number: mRNA-LNP made with the ionizable lipid at its optimal formulation (Table 2); for size (nm) Number: diluted with PBS to 1 μg/mL mRNA; for Zeta (mV): surface charge of mRNA-LNP made with the ionizable lipid at its optimal formulation (Table 2)
Protocol: Each mRNA-LNPs produced in Example 27 was diluted with PBS to a final mRNA concentration of 1 μg/mL. The size, polydispersity index (PDI), and surface charge of the mRNA-LNPs were then measured using a Malvern Zetasizer Nano ZS90 (Malvern Instruments, UK).
For particles intended for systemic administration, such as via blood vessels, the particle size must be less than 200 nm in order to pass through the endothelial capillaries of the liver. In addition, the size distribution is considered uniform only when the PDI is 0.3 or less, which enables consistent and efficient therapeutic effects (Non-patent document 3 [Danaei, M. et al). Pharmaceutics 2018, 10, 57]).

[4] = mRNA encapsulation efficiency (Quant-IT RiboGreen RNA assay); type: physicochemical; conditions: mRNA encapsulation efficiency of mRNA-LNP made with the ionizable lipid; average of two measurements
Protocol: The mRNA encapsulation efficiency (EE, %) of LNPs containing mRNA was measured using the Quant-IT™ RiboGreen® RNA assay kit (Invitrogen, USA).
The diluted samples were added to each well of a 96-well plate. Group A (without Triton X-100) was supplemented with 50 μL of 1×TE buffer, while Group B (with Triton X-100) was supplemented with 50 μL of 1×TE buffer containing 2% Triton-X 100. To release the encapsulated mRNA, the LNPs were treated with Triton-X 100 and incubated at 37° C. for 10 minutes. Subsequently, 100 μL of ribogreen reagent was added to each well. The fluorescence intensities of Group A and Group B were measured using a multi-plate reader (λex 480 nm, λem 520 nm), and mRNA encapsulation efficiency (%) was calculated using Equation 1 below. The encapsulation efficiency for each LNP was determined as the average of two independent measurements.

Row | Normalized EE % D-1 ([2]; fLuc mRNA-LNP stored at 4° C.) [%] | Size (nm) D-1 ([2]; fLuc mRNA-LNP stored at 4° C.) [nm] | Normalized EE % D-7 ([2]; fLuc mRNA-LNP stored at 4° C.) [%] | PDI D-7 ([2]; fLuc mRNA-LNP stored at 4° C.) | Size (nm) D-7 ([2]; fLuc mRNA-LNP stored at 4° C.) [nm] | Normalized EE % D-30 ([2]; fLuc mRNA-LNP stored at 4° C.) [%] | PDI D-30 ([2]; fLuc mRNA-LNP stored at 4° C.) | Size (nm) D-30 ([2]; fLuc mRNA-LNP stored at 4° C.) [nm] | Normalized EE % D-1 ([2]; fLuc mRNA-LNP stored at 25° C.) [%] | PDI D-1 ([2]; fLuc mRNA-LNP stored at 25° C.) | Size (nm) D-1 ([2]; fLuc mRNA-LNP stored at 25° C.) [nm] | Normalized EE % D-7 ([2]; fLuc mRNA-LNP stored at 25° C.) [%] | Compound | Total flux 1 hour [1] | Total flux 3 hours [1] | Total flux 6 hours [1] | Total flux 48 hours [1] | Total flux 72 hours [1] | Total flux [1] | Fold increase in total flux at 3 h, MC3 [1] | Fold increase in total flux at 3 h, SM-102 [1] | other results
1 | 94.0 | 116.7 | 92.9 | 0.126 | 121.7 | 91.4 | 0.079 | 164.4 | 94.0 | 0.143 | 116.7 | 90.9 | CCCCCCCCCCCOC(=O)CCCCCN(CCCCCCCC(=O)OC(CCCCCCCC)CCCCCCCC)CC(O)CCCCNC(=O)c1c[nH]cn1 (stereo not shown) [Compound 34, Heptadecan-9-yl 8-((2-hydroxy-6-(1H-imidazole-4-carboxamido)hexyl)(6-oxo-6-(undecyloxy)hexyl)amino)octanoate] | 6.37E+06 | 3.60E+07 | 1.70E+07 | 1.11E+06 | 7.64E+05 | 2.79E+06 | 2.91 | 0.32 | PDI D-7 ([2]; fLuc mRNA-LNP stored at 25° C.): 0.139; Size (nm) D-7 ([2]; fLuc mRNA-LNP stored at 25° C.): 129.6 nm; Normalized EE % D-30 ([2]; fLuc mRNA-LNP stored at 25° C.): 89.3%; PDI D-30 ([2]; fLuc mRNA-LNP stored at 25° C.): 0.132; Size (nm) D-30 ([2]; fLuc mRNA-LNP stored at 25° C.): 164.4 nm; PDI [3]: 0.143; size (nm) Number [3]: 117 nm; Zeta (mV) [3]: −1.50 mV; EE (%) [4]: 94%
2 | 89.5 | 114.5 | 89.9 | 0.155 | 123.7 | 90.0 | 0.280 | 138.7 | 89.5 | 0.154 | 114.5 | 88.0 | CCCCCCCCCCCOC(=O)CCCCCN(CCCCCCCC(=O)OC(CCCCCCCC)CCCCCCCC)CC(O)CCCCNC(=O)c1cn(C)cn1 (stereo not shown) [Compound 37, Heptadecan-9-yl 8-((2-hydroxy-6-(1-methyl-1H-imidazole-4-carboxamido)hexyl)(6-oxo-6-(undecyloxy)hexyl)amino)octanoate] | 7.40E+06 | 8.89E+06 | 5.97E+06 | 2.13E+06 | 1.85E+06 | 2.32E+06 | 0.72 | 0.08 | PDI D-7 ([2]; fLuc mRNA-LNP stored at 25° C.): 0.087; Size (nm) D-7 ([2]; fLuc mRNA-LNP stored at 25° C.): 133.6 nm; Normalized EE % D-30 ([2]; fLuc mRNA-LNP stored at 25° C.): 83.8%; PDI D-30 ([2]; fLuc mRNA-LNP stored at 25° C.): 0.126; Size (nm) D-30 ([2]; fLuc mRNA-LNP stored at 25° C.): 135.7 nm; PDI [3]: 0.154; size (nm) Number [3]: 115 nm; Zeta (mV) [3]: −3.30 mV; EE (%) [4]: 89%
